Experimental data as given in ChEMBL document CHEMBL3763014, “Alkaloids from Oxytropis ochrocephala and antiproliferative activity of sophoridine derivatives against cancer cell lines” (Bioorg Med Chem Lett, 2016).

Tests used:
Format in all cases: functional, cell-based
[1] = tested on: MDA-MB-231; test: Antiproliferative activity against human MDA-MB-231 cells after 3 days by SRB assay; details: MDA-MB-231, 72 h
[2] = tested on: A549; test: Antiproliferative activity against human A549 cells after 3 days by SRB assay; details: A549, 72 h
[3] = tested on: KB; test: Antiproliferative activity against human KB cells after 3 days by SRB assay; details: 72 h
[4] = Antiproliferative activity against human KBVIN cells after 3 days by SRB assay; details: 72 h
[5] = tested on: MCF7; test: Antiproliferative activity against human MCF7 cells after 3 days by SRB assay; details: MCF7, 72 h

SMILES: O=c1cccc2n1C[C@@H]1CCCN3CCC[C@H]2[C@H]13
- IC50 [1]: > 40 µM
- IC50 [2]: > 40 µM
- IC50 [3]: > 40 µM
- IC50 [4]: > 40 µM

SMILES: O=C1CCC[C@@H]2[C@@H]3C[C@@H](CN12)[C@@H]1CCCCN1C3
- IC50 [1]: > 40 µM
- IC50 [2]: > 40 µM
- IC50 [3]: > 40 µM
- IC50 [4]: > 40 µM

SMILES: COc1ccc(/C=C2\CC[C@@H]3[C@H]4CCCN5CCC[C@H](CN3C2=O)[C@@H]45)c(C)c1
- IC50 [1]: 67 µM
- IC50 [5]: > 80 µM
- IC50 [2]: 74 µM
- IC50 [3]: 74 µM
- IC50 [4]: > 80 µM

SMILES: COc1cccc(OC)c1/C=C1\CC[C@@H]2[C@H]3CCCN4CCC[C@H](CN2C1=O)[C@@H]34
- IC50 [1]: > 40 µM
- IC50 [2]: > 40 µM
- IC50 [3]: > 40 µM
- IC50 [4]: > 40 µM

SMILES: O[C@@H]1[C@H]2[C@H](O)CCCN2C[C@@H]1O
- IC50 [1]: > 40 µM
- IC50 [2]: > 40 µM
- IC50 [3]: > 40 µM
- IC50 [4]: > 40 µM

SMILES: COc1cccc(/C=C2\CC[C@@H]3[C@H]4CCCN5CCC[C@H](CN3C2=O)[C@@H]45)c1OC
- IC50 [1]: 68 µM
- IC50 [5]: > 80 µM
- IC50 [2]: > 80 µM
- IC50 [3]: 71 µM
- IC50 [4]: > 80 µM

SMILES: O=C1CCC[C@@H]2[C@H]3CCCN4CCC[C@H](CN12)[C@H]34
- IC50 [1]: > 40 µM
- IC50 [2]: > 40 µM
- IC50 [3]: > 40 µM
- IC50 [4]: > 40 µM

SMILES: O=C1/C(=C/c2ccc3c(c2)OCO3)CC[C@@H]2[C@H]3CCCN4CCC[C@H](CN12)[C@@H]34
- IC50 [1]: > 40 µM
- IC50 [2]: > 40 µM
- IC50 [3]: > 40 µM
- IC50 [4]: > 40 µM

SMILES: CCOc1cc(/C=C2\CC[C@@H]3[C@H]4CCCN5CCC[C@H](CN3C2=O)[C@@H]45)ccc1OCOC
- IC50 [1]: > 40 µM
- IC50 [2]: > 40 µM
- IC50 [3]: > 40 µM
- IC50 [4]: > 40 µM

SMILES: CCOc1cc(/C=C2\CC[C@@H]3[C@H]4CCCN5CCC[C@H](CN3C2=O)[C@@H]45)ccc1OCc1ccccc1
- IC50 [1]: 21.9 µM
- IC50 [5]: 20.5 µM
- IC50 [2]: 17.6 µM
- IC50 [3]: 20.7 µM
- IC50 [4]: 21.6 µM

SMILES: COc1cc(/C=C2\CC[C@@H]3[C@H]4CCCN5CCC[C@H](CN3C2=O)[C@@H]45)ccc1C
- IC50 [1]: 45 µM
- IC50 [5]: 54 µM
- IC50 [2]: 42 µM
- IC50 [3]: 58 µM
- IC50 [4]: 72 µM

SMILES: CN(C)c1ccc(/C=C2\CC[C@@H]3[C@H]4CCCN5CCC[C@H](CN3C2=O)[C@@H]45)cc1
- IC50 [1]: > 40 µM
- IC50 [2]: > 40 µM
- IC50 [3]: > 40 µM
- IC50 [4]: > 40 µM

SMILES: O=C1CCCC2=C3CCCN4CCC[C@@H](CN12)[C@@H]34
- IC50 [1]: > 40 µM
- IC50 [2]: > 40 µM
- IC50 [3]: > 40 µM
- IC50 [4]: > 40 µM

SMILES: O=C1CCC[C@@H]2[C@H]3CCCN4CCC[C@@H](CN12)[C@@H]34 [MATRINE]
- IC50 [1]: > 40 µM
- IC50 [2]: > 40 µM
- IC50 [3]: > 40 µM
- IC50 [4]: > 40 µM

SMILES: CC(=O)O[C@H]1C(=O)[C@@]2(C)[C@H]([C@H](OC(=O)c3ccccc3)[C@]3(O)C[C@H](OC(=O)[C@H](O)[C@@H](NC(=O)c4ccccc4)c4ccccc4)C(C)=C1C3(C)C)[C@]1(OC(C)=O)CO[C@@H]1C[C@@H]2O [PACLITAXEL]
- IC50 [1]: 0.018 µM
- IC50 [2]: 3e-05 µM
- IC50 [3]: 4e-05 µM
- IC50 [4]: 2.6 µM

SMILES: O=C1C=CC[C@@H]2[C@H]3CCCN4CCC[C@@H](CN12)[C@@H]34 [SOPHOCARPINE]
- IC50 [1]: > 40 µM
- IC50 [2]: > 40 µM
- IC50 [3]: > 40 µM
- IC50 [4]: > 40 µM

SMILES: O=C1CCC[C@@H]2[C@H]3CCCN4CCC[C@H](CN12)[C@@H]34 [SOPHORIDINE]
- IC50 [1]: > 80 µM
- IC50 [5]: > 80 µM
- IC50 [2]: > 80 µM
- IC50 [3]: > 80 µM
- IC50 [4]: > 80 µM
